The values below come from patent US12473291B2 (priority 2019, dated 2025).

Read-outs that look alike come from different tables or passages of the source. A value given as a limit tells only on which side of the number the result lay.

The test system of one experiment is SD rats. The experiment is described as follows: animal or person. It counts as in vivo.
Another experiment concerns KM mice. The experiment is described as follows: animal or person. It counts as in vivo.
[1] abbreviates: Rattus norvegicus, SD rats (male, 220-300 g), injection via the tail vein, disappearance of righting reflex, read-out: ED50.
Where [2] appears, read: SD rats, single tail vein injection at 2×ED50, time from disappearance to recovery of righting reflex.
The mark [3] stands for this setting: SD rats, single tail vein injection at 2×ED50, time from recovery of righting reflex to free crawling.
Where [4] appears, read: KM mice, single tail vein injection at 2×ED50, time from disappearance to recovery of righting reflex.
The mark [5] stands for this setting: KM mice, single tail vein injection at 2×ED50, time from recovery of righting reflex to free crawling.
The mark [6] stands for this setting: Mus musculus, KM mice (male, 18-22 g), injection via the tail vein, disappearance of righting reflex, read-out: ED50.
[7] abbreviates: SD rats (male, 220-300 g), injection via the tail vein, disappearance of righting reflex.
[8] abbreviates: KM mice (male, 18-22 g), injection via the tail vein, disappearance of righting reflex.

With `COC(=O)COC(=O)CC[C@@H]1N=C(c2ccccn2)c2cc(Br)ccc2-n2c(C)cnc21` [Example 56, 2-Methoxy-2-oxoethyl-3-((4S)-8-bromo-1-methyl-6-(pyridine-2-yl)-4H-benzo[f]imidazo[1,2-a][1,4]diaza-4-ylpropionate], the results for the ED50 in the experiment with SD rats (setting [1]) and in the experiment on KM mice (setting [6]) were 6.8 mg/kg and 27.2 mg/kg, respectively. The “2ED50 duration” value in the experiment on SD rats (setting [2]) came to 1.05 min; with KM mice (setting [4]), 4.08 min. The 2ED50 recovery time was 1.12 min in the experiment with SD rats (setting [3]) and 1.20 min in the experiment with KM mice (setting [5]). Besides, the Quality of recovery entry is listed as “++ (“++” means 1-3 min)” in the experiment on SD rats (SD rats, tail vein injection) and “++ (“++” means 1-3 min)” in the experiment on KM mice (KM mice, tail vein injection).
Take `COC(=O)C(C)(C)OC(=O)CC[C@@H]1N=C(c2ccccn2)c2cc(Cl)c(Cl)c(Cl)c2-n2c(C)cnc21` [Example 30]: the values for the ED50 with SD rats (setting [7]) and in the experiment on KM mice (setting [8]) were 6.2 mg/kg and 30.2 mg/kg, respectively. Further, the “2ED50 duration” value is 3.01 min in the experiment on SD rats (setting [2]) and 4.04 min with KM mice (setting [4]). In addition, the 2ED50 recovery time with SD rats (setting [3]) amounted to 2.51 min; in the experiment on KM mice (setting [5]), 1.59 min. Further, the Quality of recovery entry was “++ (“++” means 1-3 min)” in the experiment with SD rats (SD rats, tail vein injection) and “++ (“++” means 1-3 min)” with KM mice (KM mice, tail vein injection).
Turning to `COC(=O)OCOC(=O)CC[C@@H]1N=C(c2ccccn2)c2cc(Cl)c(F)cc2-n2c(C)cnc21` [Example 70, ((Methoxycarbonyl)oxy)methyl 3-((4S)-8-chloro-9-fluoro-1-methyl-6-(pyridine-2-yl)-4H-benzo[f]imidazo [1,2-a][1,4]diaza-4-ylpropionate borate], the ED50 with SD rats (Rattus norvegicus) worked out at 4.6 mg/kg. For the same compound, in the experiment on SD rats (rat, in vivo), the “2ED50 duration” value was 3.56 min, the 2ED50 recovery time came out at 2.57 min and the Quality of recovery result is “+++ (key: “+” means <1 mm; “++” means 1-3 min; “+++” means 3-5 min; “++++” means 5-10 min; “+++++” means >10 mm)”. In the experiment with KM mice (Mus musculus), this compound came in with an ED50 of 26.7 mg/kg. In the experiment with KM mice (mouse, in vivo), the 2ED50 duration stood at 3.27 min, the 2ED50 recovery time worked out at 2.54 min and the Quality of recovery entry is on record as “+++ (key: “+” means <1 mm; “++” means 1-3 min; “+++” means 3-5 min; “++++” means 5-10 min; “+++++” means >10 mm)”.
For `Cc1c(Br)cc2c(c1Cl)-n1c(C)cnc1[C@H](CCC(=O)OC(C)(C)NC(=O)OC1CCC1)N=C2c1ccccn1` [Example 66], the ED50 came out at 4.8 mg/kg with SD rats (setting [1]) and 30.4 mg/kg with KM mice (setting [6]). Also, the entries for the “2ED50 duration” value in the experiment on SD rats (setting [2]) and in the experiment with KM mice (setting [4]) were 4.02 min and 3.14 min, respectively. In addition, the 2ED50 recovery time turned out to be 2.17 min in the experiment with SD rats (setting [3]) and 2.35 min with KM mice (setting [5]). Besides, the Quality of recovery result is on record as “++ (“++” means 1-3 min)” in the experiment with SD rats (SD rats, tail vein injection) and “+++ (“+++” means 3-5 min)” in the experiment on KM mice (KM mice, tail vein injection).
As for `COC(=O)C1(OC(=O)CC[C@@H]2N=C(c3ccccn3)c3ccc(C(F)(F)F)c(Cl)c3-n3c(C)cnc32)CC1` [Example 41], the ED50 in the experiment on SD rats (setting [1]) worked out at 5.9 mg/kg; with KM mice (setting [6]), 28.9 mg/kg. In addition, the “2ED50 duration” value in the experiment with SD rats (setting [2]) is recorded as 3.43 min; with KM mice (setting [4]), 3.53 min. For the same compound, the values for the 2ED50 recovery time with SD rats (setting [3]) and in the experiment with KM mice (setting [5]) were 2.47 min and 1.57 min, respectively. The Quality of recovery entry in the experiment with SD rats (SD rats, tail vein injection) is recorded as “++ (“++” means 1-3 min)”; in the experiment on KM mice (KM mice, tail vein injection) it was “++ (“++” means 1-3 min)”.
In the case of `CCOC(=O)C1(OC(=O)CC[C@@H]2N=C(c3ccccn3)c3cc(F)c(C)cc3-n3c(C)cnc32)CC1` [Example 26], the ED50 is 3.7 mg/kg in the experiment on SD rats (setting [1]) and 23.7 mg/kg with KM mice (setting [6]). For the same compound, the entries for the “2ED50 duration” value in the experiment with SD rats (setting [2]) and with KM mice (setting [4]) were 3.48 min and 4.38 min, respectively. The 2ED50 recovery time in the experiment with SD rats (setting [3]) worked out at 2.04 min; with KM mice (setting [5]), 2.08 min. Moreover, the Quality of recovery entry in the experiment on SD rats (SD rats, tail vein injection) is recorded as “++ (“++” means 1-3 min)”; in the experiment on KM mice (KM mice, tail vein injection), “+++ (“+++” means 3-5 min)”.
For `COC(=O)C1(OC(=O)CC[C@@H]2N=C(c3ccccn3)c3cc(Cl)c(C(F)(F)F)cc3-n3c(C)cnc32)CC1` [Example 25], the results for the ED50 in the experiment with SD rats (setting [1]) and in the experiment on KM mice (setting [6]) were 4.2 mg/kg and 34 mg/kg, respectively. The results for the “2ED50 duration” value with SD rats (setting [2]) and in the experiment with KM mice (setting [4]) were 3.53 min and 5.32 min, respectively. The 2ED50 recovery time with SD rats (setting [3]) is given as 2.21 min; in the experiment on KM mice (setting [5]), 2.19 min. The Quality of recovery entry is given as “++ (“++” means 1-3 min)” with SD rats (SD rats, tail vein injection) and “++ (“++” means 1-3 min)” in the experiment with KM mice (KM mice, tail vein injection).
Turning to `COC(=O)C1(OC(=O)CC[C@@H]2N=C(c3ccccn3)c3cc(Cl)c(C(F)(F)F)cc3-n3c(C)cnc32)CC1` [Example 40], the ED50 was determined as 6.8 mg/kg in the experiment with SD rats (setting [7]) and 24.8 mg/kg with KM mice (setting [8]). The “2ED50 duration” value is 4.06 min in the experiment on SD rats (setting [2]) and 4.26 min in the experiment on KM mice (setting [4]). The 2ED50 recovery time in the experiment on SD rats (setting [3]) stood at 2.01 min; in the experiment on KM mice (setting [5]) it was 1.55 min. For the same compound, the Quality of recovery entry in the experiment on SD rats (SD rats, tail vein injection) was “++ (“++” means 1-3 min)”; in the experiment on KM mice (KM mice, tail vein injection) it was “++ (“++” means 1-3 min)”.
As for `CCC(CC)OC(=O)OC(OC(=O)CC[C@@H]1N=C(c2ccccn2)c2cc(Cl)c(OC(F)(F)F)cc2-n2c(C)cnc21)C1CC(F)C(CC)C1` (stereo partly drawn) [Example 68, (3-Ethyl-4-fluorocyclopentyl) (((pentanyl-3-yloxy)carbonyl)oxy)methyl 3-((4S)-8-chloro-1-methyl-6-(pyridine-2-yl)-9-(trifluoromethoxy)-4H-benzo[f]imidazo[1,2-a][1,4]diazapin-4-yl) propionate L-aspartate], the ED50 is 5.9 mg/kg with SD rats (setting [1]) and 28.9 mg/kg in the experiment on KM mice (setting [6]). For the same compound, the “2ED50 duration” value in the experiment on SD rats (setting [2]) was 4.28 min; in the experiment on KM mice (setting [4]), 3.09 min.
With `Cc1cnc2n1-c1ccc(Br)cc1C(c1ccccn1)=N[C@H]2CCC(=O)OCOC(=O)OC(C(C)C)C(C)C` [Example 52], the ED50 in the experiment with SD rats (setting [1]) was 6.8 mg/kg; in the experiment with KM mice (setting [6]), 32 mg/kg. Moreover, the entries for the “2ED50 duration” value in the experiment on SD rats (setting [2]) and in the experiment on KM mice (setting [4]) were 4.03 min and above 10 min, respectively. Also, the 2ED50 recovery time with SD rats (setting [3]) turned out to be 2.41 min; in the experiment with KM mice (setting [5]), 1.49 min. In addition, the Quality of recovery entry is on record as “++ (“++” means 1-3 min)” with SD rats (SD rats, tail vein injection) and “++++ (“++++” means 5-10 min)” in the experiment with KM mice (KM mice, tail vein injection).
Turning to `COC(=O)C(OC(=O)CC[C@@H]1N=C(c2ccccn2)c2cc(Br)c(OC(F)(F)F)c(C)c2-n2c(C)cnc21)C1CCSC1` (stereo partly drawn) [Example 74, 2-methoxy-2-oxo-1-(tetrahydrothiophene-3-yl)ethyl 3-((4S)-8-bromo-1,10-dimethyl-6-(pyridine-2-yl)-9-(trifluoromethoxy)-4H-benzo[f]imidazo[1,2-a][1,4]diazapin-4-yl)propionate stearate], the figures for the ED50 in the experiment on SD rats (setting [1]) and in the experiment with KM mice (setting [6]) were 5.7 mg/kg and 24.5 mg/kg, respectively. Moreover, the “2ED50 duration” value with SD rats (setting [2]) amounted to 2.67 min; in the experiment with KM mice (setting [4]) it was 3.42 min. Also, the figures for the 2ED50 recovery time in the experiment on SD rats (setting [3]) and with KM mice (setting [5]) were 2.54 min and 2.17 min, respectively. For the same compound, the Quality of recovery result in the experiment with SD rats (SD rats, tail vein injection) is listed as “+++ (“+++” means 3-5 min)”; with KM mice (KM mice, tail vein injection), “++ (“++” means 1-3 min)”.
As to `COC(=O)C1(OC(=O)CC[C@@H]2N=C(c3ccccn3)c3cc(Cl)c(C)c(C)c3-n3c(C)cnc32)CC1` [Example 79, 1-((3-((4S)-8-chloro-1,9,10-trimethyl-6-(pyridine-2-yl)-4H-benzo[f]imidazo[1,2-a][1,4]diaza-4-yl)propionyl)oxy) cyclopropane-1-carboxylate 1-naphthoate], the results for the ED50 in the experiment with SD rats (setting [1]) and with KM mice (setting [6]) were 6.6 mg/kg and 31.3 mg/kg, respectively. The entries for the “2ED50 duration” value in the experiment on SD rats (setting [2]) and with KM mice (setting [4]) were 2.48 min and 3.45 min, respectively. Moreover, the 2ED50 recovery time in the experiment with SD rats (setting [3]) was found to be 2.19 min; in the experiment on KM mice (setting [5]), 1.38 min. Moreover, the Quality of recovery entry in the experiment with SD rats (SD rats, tail vein injection) is “+++ (“+++” means 3-5 min)”; in the experiment with KM mice (KM mice, tail vein injection), “+++ (“+++” means 3-5 min)”.
Turning to `COC(=O)C1(OC(=O)CC[C@@H]2N=C(c3ccccn3)c3cc(Cl)c(Br)cc3-n3c(C)cnc32)CC1` [Example 45], the results for the ED50 in the experiment on SD rats (setting [1]) and in the experiment on KM mice (setting [6]) were 7.1 mg/kg and 30 mg/kg, respectively. Besides, the “2ED50 duration” value came out at 3.01 min in the experiment on SD rats (setting [2]) and 2.20 min in the experiment with KM mice (setting [4]). For the same compound, the 2ED50 recovery time in the experiment with SD rats (setting [3]) stood at 2.00 min; with KM mice (setting [5]) it was 1.53 min. Moreover, the Quality of recovery entry in the experiment on SD rats (SD rats, tail vein injection) is given as “++ (“++” means 1-3 min)”; in the experiment on KM mice (KM mice, tail vein injection) it was “++++ (“++++” means 5-10 min)”.
Regarding `CCOC(=O)C1(OC(=O)CC[C@@H]2N=C(c3ccccn3)c3cc(Cl)c(Cl)cc3-n3c(C)cnc32)CC1` [Example 69, Ethyl 1-((3-((4S)-8,9-dichloro-1-methyl-6-(pyridine-2-yl)-4H-benzo[f]imidazo[1,2-a][1,4]diaza-4-yl)propionyl)oxy) cyclopropane-1-carboxylate benzoic acid], the ED50 in the experiment on SD rats (Rattus norvegicus) worked out at 6.1 mg/kg; in the experiment on KM mice (Mus musculus), 23.8 mg/kg. Moreover, the “2ED50 duration” value in the experiment on SD rats (rat, in vivo) was 3.16 min; in the experiment on KM mice (mouse, in vivo) it was 3.45 min. Also, the 2ED50 recovery time is 2.48 min in the experiment with SD rats (rat, in vivo) and 2.38 min in the experiment with KM mice (mouse, in vivo). Also, the Quality of recovery entry is reported as “++ (key: “+” means <1 mm; “++” means 1-3 min; “+++” means 3-5 min; “++++” means 5-10 min; “+++++” means >10 mm)” in the experiment with SD rats (rat, in vivo) and “++++ (key: “+” means <1 mm; “++” means 1-3 min; “+++” means 3-5 min; “++++” means 5-10 min; “+++++” means >10 mm)” in the experiment on KM mice (mouse, in vivo).
